Test results taken from patent publication US20060228333A1, “Methods for control of tumors and chronic infections by modulating immunologically informed carriers homing to tolerogenic organs or tissues” (priority 2004, published 2006).

System: thymus (homing of Brown Norway rat PBMCs)
Assay: Thymic homing of injected donor PBMCs after drug treatment (homed cell counting in sliced thymus)
Type: in vivo, Lewis rats
Settings: for Thymic homing (cell number): control 6580; for Thymic homing compared with control and other treated groups: doses as in Table 1; for Activation of the epithelial cells of the thymus: stated in discussion of Example 1
Experimental: Inbred male Lewis rats (LW, RT1l) were injected intramuscularly with rapamycine (RAPA; 0.1 mg/kg/d), tacrolimus (TAC; 0.2 mg/kg/d), cyclosporine A (CsA; 10 mg/kg), PGE 1 (32 ug/kg or 10 ug/kg) or a control.
One hour after the above treatments, 1.2-1.6×10^7 peripheral blood mononuclear cells (PBMCs) were obtained from Brown Norway rats (BN, RT1n). The cells were stained with IUBD and then injected intraperitoneally. 24 hours after cellular inoculation, the animals were sacrificed. A thymectomy was performed, the thymus was sliced and homed cell counting was performed. Homed cells may be counted by any method known to one of skill in the art. In this case, as the cells were stained before inoculation, the homed cells in the thymus were identified by the staining. The results of the cell counting are presented in Tables 1 and 2 for each treatment group: […]

[1] = Lewis rats, i.m. RAPA 0.1 mg/kg/d, TAC 0.2 mg/kg/d, CsA 10 mg/kg, 1.2-1.6 × 10^7 BN PBMCs i.p. one hour later, thymus counted 24 hours after inoculation

Molecule: C=CC[C@@H]1/C=C(\C)C[C@H](C)C[C@H](OC)[C@H]2O[C@@](O)(C(=O)C(=O)N3CCCC[C@H]3C(=O)O[C@H](/C(C)=C/[C@@H]3CC[C@@H](O)[C@H](OC)C3)[C@H](C)[C@@H](O)CC1=O)[C@H](C)C[C@@H]2OC [FK506, tacrolimus]
- Thymic homing (cell number) [1]: 2360
- Thymic homing compared with control and other treated groups: inactivated PBMCs that homed to the thymus
- Activation of the epithelial cells of the thymus: do activate

Molecule: CCCCC[C@H](O)/C=C/[C@H]1[C@H](O)CC(=O)[C@@H]1CCCCCCC(=O)O [PGE1]
- Thymic homing (cell number) (PGE1 10 ug/kg i.m., 1.6 × 10^7 donor cells injected, 24 hours): 8890
- Thymic homing (cell number) (PGE1 32 ug/kg i.m., 1.6 × 10^7 donor cells injected, 24 hours): 4680
- Effect on epithelial cells and PBMCs (PGE1 high dose 32 ug/kg): inactivated the epithelial cells as well as the PBMCs
- Thymic homing compared with low dose and control (PGE1 high dose 32 ug/kg): less thymic homing than low doses

Molecule: CO[C@H]1C[C@@H]2CC[C@@H](C)[C@@](O)(O2)C(=O)C(=O)N2CCCC[C@H]2C(=O)O[C@H]([C@H](C)C[C@@H]2CC[C@@H](O)[C@H](OC)C2)CC(=O)[C@H](C)/C=C(\C)[C@@H](O)[C@@H](OC)C(=O)[C@H](C)C[C@H](C)/C=C/C=C/C=C/1C [RAPA, rapamycine]
- Thymic homing (cell number) [1]: 920

Molecule: cyclosporine A [CsA]
- Thymic homing (cell number) [1]: 3365
- Thymic homing compared with control and other treated groups: inactivated PBMCs that homed to the thymus
- Activation of the epithelial cells of the thymus: do activate
